Assay results from patent US9884832B2 (priority 2011, dated 2018).

These molecules were tested against AM2 S31 (wild-type serine at position 31 in the M2 protein), influenza virus A/Udorn/72 (Influenza A virus, UniProt P0DOF5) (assay: cell-based). Conditions: 100 uM; Xenopus oocytes; activity range class; read-out: S31 OOcyte Inhibition at 100 uM (%).
Chain of AM2 S31 (wild-type serine at position 31 in the M2 protein), influenza virus A/Udorn/72 (P0DOF5 whole entry, looked up): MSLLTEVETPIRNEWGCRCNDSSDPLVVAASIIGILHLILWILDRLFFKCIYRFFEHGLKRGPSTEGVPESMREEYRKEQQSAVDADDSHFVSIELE

Compound | inhibition at 100 µM
Oc1cc(OCc2ccccc2)ccc1CNC12CC3CC(CC(C3)C1)C2 [Example 37a, 2-(Adamantan-1-ylaminomethyl)-5-benzyloxy-phenol] | 31 to 95%
c1ccc2cc(COc3ccc(CNC45CC6CC(CC(C6)C4)C5)cc3)ccc2c1 [Example 38a, N-(4-(naphthalen-2-ylmethoxy)benzyl)adamantan-1-amine] | 0 to 30%
c1cnc2ccc(CNC34CC5CC(CC(C5)C3)C4)cc2c1 [Example 39a, Adamantan-1-yl-quinolin-6-ylmethyl-amine] | 0 to 30%
COc1ccc2cc(CNC34CC5CC(CC(C5)C3)C4)ccc2c1 [Example 40a, Adamantan-1-yl-(6-methoxy-naphthalen-2-ylmethyl)-amine] | 0 to 30%
c1cc2cc(CNC34CC5CC(CC(C5)C3)C4)ccc2s1 [Example 41a, N-(benzo[b]thiophen-5-ylmethyl)adamantan-1-amine] | 31 to 95%
O=c1ccc2cc(CNC34CC5CC(CC(C5)C3)C4)ccc2o1 [Example 42a, 6-((adamantan-1-ylamino)methyl)-2H-chromen-2-one] | 0 to 30%
c1cc2cn[nH]c2cc1CNC12CC3CC(CC(C3)C1)C2 [Example 43a, N-((1H-indazol-6-yl)methyl)adamantan-1-amine] | 31 to 95%
CC(=O)c1ccc(CNC23CC4CC(CC(C4)C2)C3)cc1 [Example 44a] | 0 to 30%
O=C1CCCN1c1ccc(CNC23CC4CC(CC(C4)C2)C3)cc1 [Example 45a, 1-(4-((adamantan-1-ylamino)methyl)phenyl)pyrrolidin-2-one] | 0 to 30%
Oc1cc(-c2ccoc2)ccc1CNC12CC3CC(CC(C3)C1)C2 [Example 46a] | 0 to 30%
Oc1cc(-c2ccccc2)ccc1CNC12CC3CC(CC(C3)C1)C2 [Example 47a, 4-(Adamantan-1-ylaminomethyl)-biphenyl-3-ol] | 0 to 30%
Oc1cc(-c2cc3ccccc3o2)ccc1CNC12CC3CC(CC(C3)C1)C2 [Example 48a] | 0 to 30%
Oc1cc(-c2cccs2)ccc1CNC12CC3CC(CC(C3)C1)C2 [Example 49a] | 0 to 30%
Oc1cc(Br)ccc1CNC12CC3CC(CC(C3)C1)C2 [Example 50a, 2-(((3s,5s,7s)-adamantan-1-ylamino)methyl)-5-bromophenol] | 31 to 95%
Cc1ccc(CNC23CC4CC(CC(C4)C2)C3)c(O)c1 [Example 51a] | 31 to 95%
OCc1cc(Br)ccc1CNC12CC3CC(CC(C3)C1)C2 [Example 52a, [2-(Adamantan-1-ylaminomethyl)-5-bromo-phenyl]methanol] | 0 to 30%
Oc1c(CNC23CC4CC(CC(C4)C2)C3)ccc2ccccc12 [Example 53a, 2-(Adamantan-1-ylaminomethyl)-naphthalen-1-ol] | 31 to 95%

Same assay, conditions: Table 1; 100 uM; Xenopus oocytes, pH 5.5, -20 mV; read-out: S31 OOcyte Inhibition at 100 uM (%)

Compound | inhibition at 100 µM
O=C(Oc1ccc(CNC23CC4CC(CC(C4)C2)C3)cc1)c1cccs1 [Example 37, Thiophene-2-carboxylic acid 4-(adamantan-1-ylaminomethyl)-phenyl ester] | 0 to 30%
CN(CCC#N)c1ccc(CNC23CC4CC(CC(C4)C2)C3)cc1 [Example 38, 3-((4-((Adamantan-1-ylamino)methyl)phenyl)(methyl)amino)propanenitrile] | 0 to 30%
NC(=O)COc1ccc(CNC23CC4CC(CC(C4)C2)C3)cc1 [Example 39, 2-(4-((Adamantan-1-ylamino)methyl)phenoxy)acetamide] | 0 to 30%
c1nc(-c2ccc(CNC34CC5CC(CC(C5)C3)C4)cc2)no1 [Example 40, Adamantan-1-yl-(4-[1,2,4]oxadiazol-3-yl-benzyl)-amine] | 0 to 30%
Brc1ccc(CNC23CC4CC(CC(C4)C2)C3)cc1 [Example 41, N-(4-Bromobenzyl)adamantan-1-amine] | 31 to 95%
c1cc(-c2ccc(CNC34CC5CC(CC(C5)C3)C4)cc2)co1 [Example 42, N-(4-(Furan-3-yl)benzyl)adamantan-1-amine] | 0 to 30%
CC(=O)c1sccc1-c1ccc(CNC23CC4CC(CC(C4)C2)C3)cc1 [Example 43, 1-(3-(4-((Adamantan-1-ylamino)methyl)phenyl)thiophen-2-yl)ethanone] | 0 to 30%
c1csc(-c2ccc(CNC34CC5CC(CC(C5)C3)C4)cc2)c1 [Example 44, N-(4-(Thiophen-2-yl)benzyl)adamantan-1-amine] | 0 to 30%
Oc1ccc(CNC23CC4CC(CC(C4)C2)C3)cc1O [Example 45, 4-(Adamantan-1-ylaminomethyl)-benzene-1,2-diol] | 31 to 95%
Oc1ccc(CNC23CC4CC(CC(C4)C2)C3)c(O)c1 [Example 46, 4-(Adamantan-1-ylaminomethyl)-benzene-1,3-diol] | 31 to 95%
Oc1ccc(CNC23CC4CC(CC(C4)C2)C3)cc1Cl [Example 47, 4-(Adamantan-1-ylaminomethyl)-2-chloro-phenol] | 31 to 95%
Oc1ccc(CNC23CC4CC(CC(C4)C2)C3)cc1F [Example 48, 4-(Adamantan-1-ylaminomethyl)-2-fluoro-phenol] | 31 to 95%
c1cc2c(cc1CNC13CC4CC(CC(C4)C1)C3)OCO2 [Example 49] | 31 to 95%
COc1cc(CNC23CC4CC(CC(C4)C2)C3)ccc1O [Example 50, 4-(Adamantan-1-ylaminomethyl)-2-methoxy-phenol] | 31 to 95%
Cc1cc(CNC23CC4CC(CC(C4)C2)C3)ccc1O [Example 51, 4-(Adamantan-1-ylaminomethyl)-2-methyl-phenol] | 31 to 95%
O=[N+]([O-])c1cc(CNC23CC4CC(CC(C4)C2)C3)ccc1O [Example 52, 4-(Adamantan-1-ylaminomethyl)-2-nitro-phenol] | 31 to 95%
Fc1ccc(CNC23CC4CC(CC(C4)C2)C3)c(F)c1 [Example 54, Adamantan-1-yl-(2,4-difluoro-benzyl)-amine] | 31 to 95%

Same assay, conditions: Table 3; 100 uM; Xenopus oocytes, pH 5.5, -20 mV; read-out: S31 OOcyte Inhibition at 100 uM (%)

Compound | inhibition at 100 µM
FC(F)(F)Oc1ccc(-c2cc(CNC34CC5CC(CC(C5)C3)C4)no2)cc1 [Example 36b, N-((5-(4-(trifluoromethoxy)phenyl)isoxazol-3-yl)methyl)adamantan-1-amine] | 0 to 30%
CSc1ccc(-c2cc(CNC34CC5CC(CC(C5)C3)C4)no2)cc1 [Example 37b, N-((5-(4-(methylthio)phenyl)isoxazol-3-yl)methyl)adamantan-1-amine] | 0 to 30%
Fc1cccc(F)c1-c1cc(CNC23CC4CC(CC(C4)C2)C3)no1 [Example 38b, N-((5-(2,6-difluorophenyl)isoxazol-3-yl)methyl)adamantan-1-amine] | 0 to 30%
COc1cccc(-c2cc(CNC34CC5CC(CC(C5)C3)C4)no2)c1 [Example 39b, N-((5-(3-methoxyphenyl)isoxazol-3-yl)methyl)adamantan-1-amine] | 0 to 30%
CSc1ccc(-c2cc(CNCC34CC5CC(CC(C5)C3)C4)no2)cc1 [Example 40b, 1-((3r,5r,7r)-adamantan-1-yl)-N-((5-(4-(methylthio)phenyl)isoxazol-3-yl)methyl)methanamine] | 0 to 30%
COc1ccc(-c2cc(CNC34CC5CC(CC(C5)C3)C4)no2)c(OC)c1 [Example 41b, N-((5-(2,4-dimethoxyphenyl)isoxazol-3-yl)methyl)adamantan-1-amine] | 0 to 30%
CSc1ccccc1-c1cc(CNC23CC4CC(CC(C4)C2)C3)no1 [Example 42b, N-((5-(2-(methylthio)phenyl)isoxazol-3-yl)methyl)adamantan-1-amine] | 0 to 30%
Brc1ccccc1-c1cc(CNC23CC4CC(CC(C4)C2)C3)no1 [Example 43b, N-((5-(2-bromophenyl)isoxazol-3-yl)methyl)adamantan-1-amine] | 0 to 30%
COc1ccsc1-c1cc(CNC23CC4CC(CC(C4)C2)C3)no1 [Example 44b, N-((5-(3-methoxythiophen-2-yl)isoxazol-3-yl)methyl)adamantan-1-amine] | 0 to 30%
Clc1ccccc1-c1cc(CNC23CC4CC(CC(C4)C2)C3)no1 [Example 45b, N-((5-(2-chlorophenyl)isoxazol-3-yl)methyl)adamantan-1-amine] | 0 to 30%
CSC(C)(C)Cc1cc(CNC23CC4CC(CC(C4)C2)C3)no1 [Example 46b, N-((5-(2-methyl-2-(methylthio)propyl)isoxazol-3-yl)methyl)adamantan-1-amine] | 0 to 30%
Brc1ccsc1CNC12CC3CC(CC(C3)C1)C2 [Example 47b, N-((3-Bromothiophen-2-yl)methyl)adamantan-1-amine] | 31 to 95%
c1sc(CNC23CC4CC(CC(C4)C2)C3)cc1C1CC1 [Example 48b, N-((4-Cyclopropylthiophen-2-yl)methyl)adamantan-1-amine] | 0 to 30%
CCOc1ccc(-c2ccc(CNC34CC5CC(CC(C5)C3)C4)s2)cc1 [Example 49b, N-((5-(4-Ethoxyphenyl)thiophen-2-yl)methyl)adamantan-1-amine] | 0 to 30%
CC(C)(C)c1ccc(-c2ccc(CNC34CC5CC(CC(C5)C3)C4)s2)cc1 [Example 50b, N-((5-(4-(tert-Butyl)phenyl)thiophen-2-yl)methyl)adamantan-1-amine] | 0 to 30%
Cc1csc(-c2ccc(CNC34CC5CC(CC(C5)C3)C4)s2)c1 [Example 51b, N-((4′-Methyl-[2,2′-bithiophen]-5-yl)methyl)adamantan-1-amine] | 0 to 30%
Cc1ccc(-c2ccc(CNC34CC5CC(CC(C5)C3)C4)s2)o1 [Example 52b, N-((5-(5-Methylfuran-2-yl)thiophen-2-yl)methyl)adamantan-1-amine] | 0 to 30%
c1ccc(-c2cnc(CNC34CC5CC(CC(C5)C3)C4)[nH]2)cc1 [Example 53b, N-((5-phenyl-1H-imidazol-2-yl)methyl)adamantan-1-amine] | 0 to 30%
